Assay results published in patent US10501460B2, “Heterocyclic compounds and uses thereof” (Plexxikon Inc., priority 2013, dated 2019).

Legend:
[1] = target: T1, BRD4-BD1 (44-164) (Homo sapiens, UniProt O60885); assay: Alphascreen binding assay BRD4-BD1 (BRD4 biochemical inhibitory activity); settings: read-out: Biochemical activity (IC50 μM) BRD4(1) H4
T1 construct: BRD4-BD1 (44-164); made in house; host or cells: E. coli BL21-CodonPlus (DE3)
Description: Binding of compounds of formula (I) with bromodomain 2, 3 4 was assessed using Alphascreen binding assay. The inhibition of the interaction between bromodomain and its acetylated target protein (Filippakopoulos P et al. 2012) was measured quantitatively using recombinant BRD proteins, an acetylated Histone 4 peptide and AlphaScreen™ technology. In absence of inhibition the BRD protein bound to AlphaScreen™ nickel chelate acceptor beads can interact with the acetylated Histone 4 peptide which is immobilized by the AlphaScreen™ Streptavidin coated beads. This interaction brings donor and acceptor beads in proximity. The close proximity allows the singlet oxygen produced by laser excitation of the donor beads to reach the acceptor beads and generate a luminescence signal. BRD inhibitors result in a decrease in the proximity signal through an inhibition of the BRD—acetylated peptide interaction.
Recombinant human bromodomains containing the N-terminal bromodomain (BRD2-BD1 (71-194), BRD3-BD1 (24-144) and BRD4-BD1 (44-164)) or dual bromodomains (BRD4-BD12 (1-477), BRD4-BD12 (1-472)) were prepared and purified as described in protein expression and purification session. The peptide is human Histone H41-21K5AcK8AcK12AcK16Ac-Biotin (Anaspec Calif., USA).
Protocol for BRD2, BRD3 and BRD4 assay: All components are prepared in buffer composed of 50 mM HEPES pH 7.5, 100 mM NaCl, 0.01% bovine serum albumin (“BSA”), 0.01% Triton X-100, 2 mM dithiothreitol (“DTT”). 7 μL of Bromodomain protein and 7 μL of peptide are added to wells containing 1 μL of various concentrations of test compounds of formula (I) or DMSO vehicle in an Alphaplate (PerkinElmer Ga., USA) and incubated for 1 hour at room temperature. 4 μL donor and acceptor bead mixture is then added with final concentrations of 7.5 μg/ml. 30 minutes after bead addition, Alpha signal is read on the Envision spectrometer ([…]Ex 680 nm, […]Em 520-620 nm). Final concentrations of bromodomain proteins and peptide are as shown below.
All data was normalized to the mean of 16 high and 16 low control wells on each plate. A four parameter curve fit of the following formula was then applied: Y=a+(b−a)/(1+(x/c)^d) Where ‘a’ is the minimum, ‘b’ is the maximum, ‘c’ is the pIC50 and ‘d’ is the Hill slope. Protein Expression and Purification
Recombinant human bromodomains containing the N-terminal bromodomain (BRD2-BD1 (71-194), BRD3-BD1 (24-144) and BRD4-BD1 (44-164)) or dual bromodomains (BRD4-BD12 (1-477), BRD4-BD12 (1-472)) were expressed in E. coli cells (in a modified pET vector) with an N-terminal six-His tag and purified using a combination of both IMAC (Ni-affinity) and size exclusion chromatography steps.
Recombinant BRD proteins were expressed using the E. coli strain BL21-CodonPlus (DE3) (Agilent Technologies Calif., USA). Cells were grown in Terrific Broth (TB) media to an OD600 of 1.2 at 37° C. at which temperature was reduced to 25° C., protein was induced with 1.0 mM ispropyl-β-D-thiogalactopyranoside (“IPTG”) for 12-18 hours and harvested by centrifugation at 8000×g for 20 minutes. Cells were re-suspended in 0.1M K2PO4 pH 8.0, 250 mM NaCl, 10% Glycerol, 0.75% NP-40, 25 mM Imidazole, 5 mM beta-mercaptoethanol (“BME”) with 0.2 mg/ml Lysosyme, 2.0 mM phenylmethanesulfonyl fluoride (“PMSF”), 25 μg/ml DNAse I, incubated on ice for 30 minutes and lyzed with a cell disruptor (MicroFluidics Mass., USA). The lysate was clarified by centrifugation at 20,000×g for 2 hours. The protein was captured with Ni-NTA resin (Life Technologies, USA). Contaminating proteins were washed off with 25 mM Tris-HCl pH 8.3, 250 mM NaCl, 12% Glycerol and 50 mM Imidazole. Following 3× wash steps, protein was eluted step wise using a 50 mM HEPES pH 7.5, 500 mM NaCl and 400 mM Imidazole. The protein was further purified using Gel Filtration column 26/600 Superdex 200 (GE Biosciences NJ, USA) in 50 mM HEPES pH 7.5, 250 mM NaCl. The protein was aliquoted and flash-frozen in liquid Nitrogen. […]

[2] = system: MV-4-11; assay: Oncology cell growth assay MV-4-11 (CellTiter Glo, 72 hours); format: cell-based; settings: Homo sapiens, MV4-11, 72 h; MV-4-11 cell growth inhibitory activity, 3d
Summary of the method: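 Growth read by CellTiter Glo luminescence after 72 h compound exposure of MV-4-11 AML cells (MLL-AF4), using 8-point 1:3 series to 10 μM final in 0.2% DMSO. Data normalized to DMSO wells, four-parameter fit yields pIC50.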

[3] = system: bromodomain; assay: Bromodomain cell assays of Example 40 (at least one of them); format: cell-based; settings: in at least one of the bromodomain cell assays described in Example 40
Summary of the method: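 Growth inhibition: 3000 MV-4-11, MOLM-13, MM.1S or neuroblastoma cells/well got an 8-point 1:3 series from 10 μM top (0.2% DMSO) for 72 h, then CellTiter-Glo luminescence. Myc reporter: MV-4-11 with E-box firefly luciferase, 24 h exposure, One-Glo luminescence plus CellTiter-Fluo cell count. pIC50 from four-parameter fit.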

Q: What does the source list for `Cc1cc2cc(-c3c(C)noc3C)cnc2[nH]1` [P-0017, 3,5-dimethyl-4-(2-methyl-1H-pyrrolo[2,3-b]pyridin-5-yl)isoxazole]?
A: IC50 [1]: 1 to 10 µM; IC50 [2]: 1 to 10 µM; IC50 [3]: < 10 µM

Q: Which results are given for `Cc1noc(C)c1-c1cnc2[nH]cc(C(O)c3ccc(C(F)(F)F)nc3)c2c1` (stereo not drawn) [P-0023, [5-(3,5-dimethylisoxazol-4-yl)-1H-pyrrolo[2,3-b]pyridin-3-yl]-[6-(trifluoromethyl)-3-pyridyl]methanol]?
A: IC50 [1]: 1 to 10 µM; IC50 [2]: 1 to 10 µM; IC50 [3]: < 10 µM

Q: `COc1ccc(S(=O)(=O)n2ccc3ncc(-c4c(C)noc4C)cc32)cc1` [P-0032, 4-[1-(4-methoxyphenyl)sulfonylpyrrolo[3,2-b]pyridin-6-yl]-3,5-dimethyl-isoxazole] was tested. Which IC50 [1] did it give?
A: 1 to 10 µM

Q: What about the IC50 [2] of the same compound?
A: 1 to 10 µM

Q: What about the IC50 [3] of the same compound?
A: < 10 µM

Q: Which IC50 [1] does the source give for `Cc1noc(C)c1-c1cnc2ccn(S(=O)(=O)c3ccc(OC(C)C)cc3)c2c1` [P-0033, 4-[1-(4-isopropoxyphenyl)sulfonylpyrrolo[3,2-b]pyridin-6-yl]-3,5-dimethyl-isoxazole] here?
A: 1 to 10 µM

Q: And the IC50 [2]?
A: 1 to 10 µM

Q: What about the IC50 [3] of the same compound?
A: < 10 µM

Q: Which IC50 [1] does the source give for `CCc1cc2cc(-c3c(C)noc3C)cnc2[nH]1` [P-0035, 4-(2-ethyl-1H-pyrrolo[2,3-b]pyridin-5-yl)-3,5-dimethyl-isoxazole] here?
A: 1 to 10 µM

Q: And the IC50 [2]?
A: 1 to 10 µM

Q: What about the IC50 [3] of the same compound?
A: < 10 µM

Q: For `Cc1noc(C)c1-c1cnc2[nH]cc(Cc3cccc(OC(F)(F)F)c3)c2c1` [P-0046, 3,5-dimethyl-4-[3-[[3-(trifluoromethoxy)phenyl]methyl]-1H-pyrrolo[2,3-b]pyridin-5-yl]isoxazole], which IC50 [1] is on record?
A: 1 to 10 µM

Q: And the IC50 [2]?
A: 1 to 10 µM

Q: And the IC50 [3]?
A: < 10 µM

Q: `Cc1noc(C)c1-c1cnc2ccn(S(=O)(=O)N3CCCC3)c2c1` [P-0068, 3,5-dimethyl-4-(1-pyrrolidin-1-ylsulfonylpyrrolo [3,2-b]pyridin-6-yl)isoxazole] was tested. Which IC50 [1] did it give?
A: 1 to 10 µM

Q: What about the IC50 [3] of the same compound?
A: < 10 µM

Q: Which IC50 [1] does the source give for `COC(c1c[nH]c2cc(-c3c(C)noc3C)cnc12)C1CC1` (stereo not drawn) [P-0069] here?
A: 1 to 10 µM

Q: And the IC50 [3]?
A: < 10 µM

Q: Which IC50 [1] does the source give for `Cc1noc(C)c1-c1cnc2c(CC3CC3)c[nH]c2c1` [P-0070, 4-[3-(cyclopropylmethyl)-1H-pyrrolo[3,2-b]pyridin-6-yl]-3,5-dimethyl-isoxazole] here?
A: 1 to 10 µM

Q: What about the IC50 [3] of the same compound?
A: < 10 µM

Q: What does the source list for `Cc1noc(C)c1-c1cnc2c(I)c[nH]c2c1` [P-0072, 4-(3-iodo-1H-pyrrolo[3,2-b]pyridin-6-yl)-3,5-dimethyl-isoxazole]?
A: IC50 [1]: 1 to 10 µM; IC50 [3]: < 10 µM

Q: How did the IC50 [1] turn out when `Cc1noc(C)c1-c1cnc2c(CC3CC3)cn(S(=O)(=O)CCC(F)(F)F)c2c1` [P-0074, 4-[3-(cyclopropylmethyl)-1-(3,3,3-trifluoropropylsulfonyl)pyrrolo[3,2-b]pyridin-6-yl]-3,5-dimethyl-isoxazole] was run?
A: 1 to 10 µM

Q: What about the IC50 [3] of the same compound?
A: < 10 µM

Q: What does the source list for `Cc1noc(C)c1-c1cnc2c(C#N)cn(S(=O)(=O)c3ccccc3)c2c1` [P-0081, 1-(benzenesulfonyl)-6-(3,5-dimethylisoxazol-4-yl)pyrrolo[3,2-b]pyridine-3-carbonitrile]?
A: IC50 [1]: ≤ 1 µM; IC50 [3]: < 10 µM

Q: What does the source list for `Cc1noc(C)c1-c1cnc2c(C#N)c[nH]c2c1` [P-0082, 6-(3,5-dimethylisoxazol-4-yl)-1H-pyrrolo[3,2-b]pyridine-3-carbonitrile]?
A: IC50 [1]: 1 to 10 µM; IC50 [3]: < 10 µM

Q: How did the IC50 [1] turn out when `Cc1noc(C)c1-c1cnc2[nH]cc(I)c2c1` [P-0086, 4-(3-iodo-1H-pyrrolo[2,3-b]pyridin-5-yl)-3,5-dimethyl-isoxazole] was run?
A: 1 to 10 µM

Q: What about the IC50 [3] of the same compound?
A: < 10 µM

Q: For `Cc1noc(C)c1-c1cnc2c(c1)c(I)cn2S(=O)(=O)c1ccccc1` [P-0087, 4-[1-(benzenesulfonyl)-3-iodo-pyrrolo[2,3-b]pyridin-5-yl]-3,5-dimethyl-isoxazole], which IC50 [1] is on record?
A: 1 to 10 µM

Q: What about the IC50 [3] of the same compound?
A: < 10 µM

Q: Which IC50 [1] does the source give for `[2H]C([2H])([2H])n1cc(I)c2cc(-c3c(C)noc3C)cnc21` [P-0088, 4-[3-iodo-1-(trideuteriomethyl)pyrrolo[2,3-b]pyridin-5-yl]-3,5-dimethyl-isoxazole] here?
A: 1 to 10 µM

Q: What about the IC50 [3] of the same compound?
A: < 10 µM

Q: Which results are given for `Cc1noc(C)c1-c1cnc2c(c1)c(C(O)C1CCS(=O)(=O)CC1)cn2S(=O)(=O)c1ccccc1` (stereo not drawn) [P-0094, [1-(benzenesulfonyl)-5-(3,5-dimethylisoxazol-4-yl)pyrrolo[2,3-b]pyridin-3-yl]-(1,1-dioxothian-4-yl)methanol]?
A: IC50 [1]: 1 to 10 µM; IC50 [3]: < 10 µM

Q: With `Cc1noc(C)c1-c1cnc2c(c1)c(C(F)C1CCS(=O)(=O)CC1)cn2S(=O)(=O)c1ccccc1` (stereo not drawn) [P-0095, 4-[[1-(benzenesulfonyl)-5-(3,5-dimethylisoxazol-4-yl)pyrrolo[2,3-b]pyridin-3-yl]-fluoro-methyl]thiane 1,1-dioxide] as the compound, how does the IC50 [1] read?
A: 1 to 10 µM

Q: And the IC50 [3]?
A: < 10 µM

Q: With `Cc1noc(C)c1-c1cnc2c(c1)c(CC1CCS(=O)(=O)CC1)cn2S(=O)(=O)c1ccccc1` [P-0096, 4-[[1-(benzenesulfonyl)-5-(3,5-dimethylisoxazol-4-yl)pyrrolo[2,3-b]pyridin-3-yl]methyl]thiane 1,1-dioxide] as the compound, how does the IC50 [1] read?
A: 1 to 10 µM

Q: And the IC50 [3]?
A: < 10 µM

Q: Which IC50 [1] does the source give for `Cc1noc(C)c1-c1cnc2c(I)cn([Si](C(C)C)(C(C)C)C(C)C)c2c1` [P-0130, [6-(3,5-dimethylisoxazol-4-yl)-3-iodo-pyrrolo[3,2-b]pyridin-1-yl]-triisopropyl-silane] here?
A: 1 to 10 µM

Q: What about the IC50 [3] of the same compound?
A: < 10 µM

Q: For `Cc1noc(C)c1-c1cnc2c(C(=O)O)cn(S(=O)(=O)c3ccccc3)c2c1` [P-0169, 1-(benzenesulfonyl)-6-(3,5-dimethylisoxazol-4-yl)pyrrolo[3,2-b]pyridine-3-carboxylic acid], which IC50 [1] is on record?
A: ≤ 1 µM

Q: What about the IC50 [3] of the same compound?
A: < 10 µM

Q: Which results are given for `Cc1noc(C)c1-c1cnc2c(c1)N(S(=O)(=O)c1ccccc1)CC2CCC(=O)O` (stereo not drawn) [P-0175, 3-[1-(benzenesulfonyl)-6-(3,5-dimethylisoxazol-4-yl)-2,3-dihydropyrrolo[3,2-b]pyridin-3-yl]propanoic acid]?
A: IC50 [1]: 1 to 10 µM; IC50 [3]: < 10 µM

Q: What does the source list for `Cc1noc(C)c1-c1cnc2c(c1)c(Sc1ccccc1)cn2C1COC1` [P-0178, 3,5-dimethyl-4-[1-(oxetan-3-yl)-3-phenylsulfanyl-pyrrolo[2,3-b]pyridin-5-yl]isoxazole]?
A: IC50 [1]: 1 to 10 µM; IC50 [2]: 1 to 10 µM

Q: With `Cc1noc(C)c1-c1cnc2c(-c3cnn(C)c3)cn(C(=O)C3CCC(F)(F)CC3)c2c1` [P-0208, (4,4-difluorocyclohexyl)-[6-(3,5-dimethylisoxazol-4-yl)-3-(1-methylpyrazol-4-yl)pyrrolo[3,2-b]pyridin-1-yl]methanone] as the compound, how does the IC50 [1] read?
A: ≤ 1 µM

Q: And the IC50 [2]?
A: 1 to 10 µM
